# Key:
# [1] = test system: human neurotensin receptor subtype-1 (hNTSR1); experiment: GPCR signaling assay using membrane-tethered peptide ligands, hNTSR1; type: cell-based; details: strain IMFD-72ZsD, pGK421-NTSR1, flow cytometry; for fold increase in fluorescence intensity compared with α-factor: after 24 h cultivation, pH-adjusted SD medium, mean of 10,000 cells, n = 3; for rank order of ZsGreen fluorescence: membrane-tethered peptides, 24 h
# Description: (§1) The cultured cells were washed and suspended in distilled water. The cell suspensions were observed using a BZ-9000 fluorescence microscope (Keyence, Osaka, Japan). Green fluorescence images were acquired with a 470/40 band-pass filter for excitation and a 535/50 band-pass filter for emission. Digital image intensities of green fluorescence were carried out, from four experiments each, with the ImageJ software (freely downloadable from the ImageJ website, http://rsbweb.nih.gov/ij/) and expressed as Integrated Density (IntDen) or its percent.
# (§2) Flow cytometry measurements of green fluorescence followed previous procedures. In brief, GFP was detected using a BD FACSCanto II flow cytometer equipped with a 488-nm blue laser (Becton, Dickinson and Company, Franklin Lakes, NJ, USA); the data were analyzed using BD FACSDiva software (v5.0; Becton, Dickinson and Company). The GFP fluorescence signal was collected through a 530/30 nm band-pass filter and the GFP-A mean of 10,000 cells was defined as ‘green fluorescence intensity’.
# GPCR signaling assays using membrane-tethered peptide ligands basically followed a previous procedure with some modifications. In brief, to assay signal activation from human GPCRs, yeast strains harboring the pGK421-based GPCR expression plasmids and pGK426-based peptide display plasmids were grown in SD medium (supplemented as needed) at 30 °C overnight, then the cells then were inoculated into 5 mL of the respective fresh SDM71 medium to give an initial OD600 = 0.1. The cells were incubated at 30 °C on a rotary shaker at 150 rpm, then the yeast cells were observed using a fluorescence microscope, diluted with 1 ml of sheath fluid, and fluorescence was analyzed by flow cytometry.
# Data were analyzed using KaleidaGraph4.0. Statistical significance of the differences between more than two groups was calculated by one-way ANOVA, followed by Tukey’s post test. Z’ factor, a commonly used parameter reflecting the robustness and the quality of assays, was determined as follows: Z’ factor = 1 ‒ 3(SDpositive control + SDnegative control)/ (meanpositive control ‒ meannegative control), where “SD” represents standard deviation of multiple replicates of an assay.
# [2] = test system: human somatostatin receptor subtype-2 (hSSTR2); experiment: GPCR signaling assay with exogenously added ligand, hSSTR2; type: cell-based; details: 4 h; for fold higher fluorescence on agonist addition / fold increase in fluorescence intensity on agonist stimulation: pGK421-SSTR2, with vs without 10 μM SST, 30 °C, pH 7.1 SD medium, flow cytometry, mean of 10,000 cells, n = 3
# Description: as §1, §2
# (§3) GPCR signaling assays with exogenously added ligands basically followed previous procedures. In brief, to assay signal activation from human GPCRs, yeast strains harboring the pGK421-based plasmids were grown in SD medium (supplemented as needed) at 30 °C overnight, then the cells then were inoculated into 5 mL of the respective fresh SD medium to give an initial OD600 = 0.03. The cells were incubated at 30 °C on a rotary shaker at 150 rpm for up to 18 h and harvested, washed, and resuspended in water to give an OD600 = 10. […] The plates were incubated at 30 °C with shaking (150 rpm) for 4 h, then the yeast cells were observed using a fluorescence microscope, diluted with 1 mL of sheath fluid, and fluorescence was analyzed by flow cytometry.
# [3] = test system: human somatostatin receptor subtype-5 (hSSTR5); experiment: GPCR signaling assay with exogenously added ligand, hSSTR5 (FIG1-promoter GFP reporter yeast); type: cell-based; details: 4 h; for fluorescence microscopy observation: 10 μM SST; for fold increase in fluorescence on agonist addition / fold increase in fluorescence intensity in response to agonist stimulation: pGK421-SSTR5, with vs without 10 μM SST, 30 °C, pH 7.1 SD medium, flow cytometry, mean of 10,000 cells, n = 3
# Description: as §1, §2, §3
# [4] = test system: human neurotensin receptor subtype-1 (hNTSR1); experiment: GPCR signaling assay with exogenously added ligand, hNTSR1; type: cell-based; details: 4 h; for fold higher fluorescence than in the absence of agonist / fold increase in fluorescence intensity in response to agonist stimulation: pGK421-NTSR1, with vs without 10 μM NTS, 30 °C, pH 7.1 SD medium, flow cytometry, mean of 10,000 cells, n = 3
# Description: as §1, §2, §3
# [5] = test system: human neurotensin receptor subtype-1 (hNTSR1); experiment: Quantitative digital image analysis of ZsGreen fluorescence (microscopy, ImageJ), hNTSR1; type: cell-based; details: strain IMFD-72ZsD, pGK421-NTSR1; NTS at several concentrations, 4 h; 100 cells, n = 4
# Description: as §1, §3
# [6] = cited from earlier work
# Source text: Studies on the structure-activity relationship of neurotensin verified that positive charges at positions 8 and 9 are important but not prerequisite for its bioactivity. There is charge complementarity between NTS8–13 and its binding pocket: the positively- ...
# [7] = strain IMFD-70ZsD (ZsGreen, Gpa1p)
# [8] = strain IMFD-72ZsD (ZsGreen, Gi3tp)
substance,measurement,setting,value
"KIPYIL [NMN, NMN–Flag–Flo42 in pGK426; membrane-tethered neuromedin N]",fold increase in fluorescence intensity compared with α-factor,[1],> 1.5 fold
same,rank order of ZsGreen fluorescence,[1],NTS8–13 > NTS > NMN > α-factor
"RRPYIL [NTS8–13, NTS 8-13 -Flag–Flo42 in pGK426; membrane-tethered NTS8–13]",fold increase in fluorescence intensity compared with α-factor,[1],greater than 35 fold
same,rank order of ZsGreen fluorescence,[1],NTS8–13 > NTS > NMN > α-factor
somatostatin [SST],fluorescence microscopy observation,"[2]; hSSTR2-expressing IMFD-72ZsD, 10 μM SST, 40× and 100× objective",clearly exhibited changes in green fluorescence and morphology
same,fold higher fluorescence on agonist addition,"[2]; strain IMFD-70 (EGFP, Gpa1p)",3.0 fold
same,fold increase in fluorescence intensity on agonist stimulation,[2]; [7],36 fold
same,fold higher fluorescence on agonist addition,"[2]; strain IMFD-72 (EGFP, Gi3tp)",4.6 fold
same,fold increase in fluorescence intensity on agonist stimulation,[2]; [8],81 fold
same,fluorescence microscopy observation,"[3]; hSSTR5-expressing IMFD-70ZsD and IMFD-72ZsD (ZsGreen), 40× and 100× objective",exhibited changes in green fluorescence and morphology
same,fluorescence microscopy observation,[3]; hSSTR5-expressing IMFD-70 and IMFD-72 (EGFP),the fluorescence was too weak to allow observation with a fluorescence microscope
same,fold increase in fluorescence on agonist addition,"[3]; strain IMFD-70 (EGFP, Gpa1p)",3.9 fold
same,fold increase in fluorescence intensity in response to agonist stimulation,"[3]; strain IMFD-70Zs (single ZsGreen substitution, Gpa1p)",33 fold
same,fold increase in fluorescence intensity in response to agonist stimulation,"[3]; strain IMFD-70ZsD (double ZsGreen substitution, Gpa1p)",83 fold
same,fold increase in fluorescence on agonist addition,"[3]; strain IMFD-72 (EGFP, Gi3tp)",5.6 fold
same,fold increase in fluorescence intensity in response to agonist stimulation,"[3]; strain IMFD-72Zs (single ZsGreen substitution, Gi3tp)",65 fold
same,fold increase in fluorescence intensity in response to agonist stimulation,"[3]; strain IMFD-72ZsD (double ZsGreen substitution, Gi3tp)",104 fold
neurotensin [NTS],fluorescence microscopy observation,"[4]; hNTSR1-expressing IMFD-72ZsD, 10 μM NTS, 40× and 100× objective",clearly exhibited changes in green fluorescence and morphology
same,fold higher fluorescence than in the absence of agonist,"[4]; strain IMFD-70 (EGFP, Gpa1p)",1.3 fold
same,fold increase in fluorescence intensity in response to agonist stimulation,[4]; [7],7.9 fold
same,fold higher fluorescence than in the absence of agonist,"[4]; strain IMFD-72 (EGFP, Gi3tp)",2.3 fold
same,fold increase in fluorescence intensity in response to agonist stimulation,[4]; [8],45 fold
same,"digital intensity of green fluorescence (IntDen), concentration dependence",[5],varied in a NTS-dependent manner
"RRPYIL [Neurotensin-(8-13), pharmacophore of neurotensin, RRPYIL (cited from literature)]",potency and efficacy versus full-length NTS,[6],higher potency and efficacy than full-length NTS
"KIPYIL [neuromedin N, neurotensin-like peptide, KIPYIL (cited from literature)]",biological activity,[6],very weak biological activity

# — paper PMC3855394, “Bright Fluorescence Monitoring System Utilizing Zoanthus sp. Green Fluorescent Protein (ZsGreen) for Human G-Protein-Coupled Receptor Signaling in Microbial Yeast Cells” (PLoS ONE, 2013)
